Assay results as given in patent publication US8785396B2, “Method and composition for treating migraines” (Mannkind Corporation, priority 2007, dated 2014).

What was measured:
[1] = Sumatriptan pharmacokinetics in female Sprague Dawley rats; details: rat, in vivo, 0.358 mg
Female ZDF rats [2] = test: Food consumption in female ZDF rats (PYY); type: in vivo, rat; details: Group 1: 0.6 mg IV
From the text: (§1) Pharmacokinetic and pharmacodynamic studies: Female ZDF rats were used in these experiments and divided into 7 groups; five rats were assigned to each group, except for Group 1 which had 3 rats.

Female ZDF rats [3] = test: Blood glucose in female ZDF rats (PYY); type: in vivo, rat; details: Group 1: PYY IV
From the text: as §1

[4] = test system: healthy adult male subjects; test: Phase 1a clinical trial: insulin, glucose and glucagon response after inhaled GLP-1; type: in vivo, human
Method: GLP-1/FDKP inhalation powder was administered using the MedTone® Inhaler device, previously tested. The experiments were designed to identify the safety and tolerability of various doses of GLP-1/FDKP inhalation powder by pulmonary inhalation.
Dropouts were not replaced. These dosages assumed a body mass of 70 kg.

[5] = test system: patients diagnosed with type 2 diabetes; test: Meal challenge study in type 2 diabetes patients: GLP-1 levels, insulin, glucose, gastric emptying; type: in vivo, human
Method: Experimental Design: The study was divided into two periods and enrolled 20 patients diagnosed with type 2 diabetes ranging in age from 20 to 64 years of age. […] Period 2 was performed after completion of Period 1. […] The results of this study are depicted in FIGS. 18-20.

[6] = test system: patients with Type 2 diabetes; test: Phase 1 clinical trial of GLP-1/FDKP inhalation powder in fasted Type 2 diabetes patients: serum glucose; type: in vivo, human; details: 1.5 mg GLP-1 inhaled; attained by the 30 min time point
Method: […]. These studies were conducted according to Example 1 and as described herein. […]. No. 11/735,957, which disclosure is incorporated herein by reference. […].
[…]. The serum glucose levels were analyzed for each sample.

ZDF rats = test: Intraperitoneal glucose tolerance test (IPGTT) in ZDF rats (exendin-4); type: in vivo, rat; details: subcutaneous injection
From the text: After an overnight fast, ZDF rats were given a glucose challenge by intraperitoneal injection (IPGTT).

Male ZDF rats = test: Cumulative food consumption in male ZDF rats (oxyntomodulin); type: in vivo, rat; details: 30% oxyntomodulin/FDKP powder by pulmonary insufflation, fasted ZDF rats
Method: Male ZDF rats (10/group) were assigned to one of four groups.
Rats were allowed to eat after receiving the experimental dose. A predetermined amount of food was given to the rats and the amount of food the rats consumed was measured at various times after the start of the experiment.

CNS(=O)(=O)Cc1ccc2[nH]cc(CCN(C)C)c2c1 [Sumatriptan, sumatriptan]
bioavailability ([1]; iv): 100%
bioavailability ([1]; sc): 36.4%

peptide YY(3-36) [PYY]
food consumption (Female ZDF rats [2]): relatively effective in reducing food consumption
time after dosing up to which blood glucose level was lower than in the other rats (Female ZDF rats [3]): about 15 min

glucagon-like peptide 1 [GLP-1]
decrease in plasma glucose in two of the six subjects ([4]; 1.5 mg GLP-1 inhaled): more than 1.5 mol/L
mean fasting plasma glucose 20 min after dosing ([4]; 1.5 mg GLP-1 inhaled, reduced from 85): 70 mg/dL
largest decrease in plasma glucagon ([4]; 1.5 mg dose group): approximately 2.5 pmol/L
time of maximum change in plasma glucagon ([4]; after dosing, inhaled GLP-1): 12 min
peak plasma insulin levels in one subject ([4]; inhaled GLP-1): exceeded 700 pmol/L
peak plasma insulin response in most subjects ([4]; inhaled GLP-1, dose groups 0.05-1.5 mg): 200 to 400 pmol/L
insulin response ([5]; GLP-1 dry powder comprising FDKP, fed and fasted groups): more significant
blood glucose after meal challenge ([5]; GLP-1 dry powder formulation): delayed rise in blood glucose and reduced overall exposure (AUC) to glucose
mean glucose drop [6]: approximately 1 mmol/L

exenatide
time blood glucose was significantly lowered following IPGTT versus air control (ZDF rats): 30 min

oxyntomodulin
time after dosing with significantly less food consumed than control rats (Male ZDF rats): up to 6 hr
